The term pKi denotes −log10 of the Ki, conventionally taken in molar units. High values mean a small Ki, low ones a large Ki.

pKi: −log10 of the molar value. Counter-ions that a name gives are not always drawn.

The target of one assay is T1, ENPP1 (Homo sapiens, UniProt P22413).
T1 sequence (P22413 1-925): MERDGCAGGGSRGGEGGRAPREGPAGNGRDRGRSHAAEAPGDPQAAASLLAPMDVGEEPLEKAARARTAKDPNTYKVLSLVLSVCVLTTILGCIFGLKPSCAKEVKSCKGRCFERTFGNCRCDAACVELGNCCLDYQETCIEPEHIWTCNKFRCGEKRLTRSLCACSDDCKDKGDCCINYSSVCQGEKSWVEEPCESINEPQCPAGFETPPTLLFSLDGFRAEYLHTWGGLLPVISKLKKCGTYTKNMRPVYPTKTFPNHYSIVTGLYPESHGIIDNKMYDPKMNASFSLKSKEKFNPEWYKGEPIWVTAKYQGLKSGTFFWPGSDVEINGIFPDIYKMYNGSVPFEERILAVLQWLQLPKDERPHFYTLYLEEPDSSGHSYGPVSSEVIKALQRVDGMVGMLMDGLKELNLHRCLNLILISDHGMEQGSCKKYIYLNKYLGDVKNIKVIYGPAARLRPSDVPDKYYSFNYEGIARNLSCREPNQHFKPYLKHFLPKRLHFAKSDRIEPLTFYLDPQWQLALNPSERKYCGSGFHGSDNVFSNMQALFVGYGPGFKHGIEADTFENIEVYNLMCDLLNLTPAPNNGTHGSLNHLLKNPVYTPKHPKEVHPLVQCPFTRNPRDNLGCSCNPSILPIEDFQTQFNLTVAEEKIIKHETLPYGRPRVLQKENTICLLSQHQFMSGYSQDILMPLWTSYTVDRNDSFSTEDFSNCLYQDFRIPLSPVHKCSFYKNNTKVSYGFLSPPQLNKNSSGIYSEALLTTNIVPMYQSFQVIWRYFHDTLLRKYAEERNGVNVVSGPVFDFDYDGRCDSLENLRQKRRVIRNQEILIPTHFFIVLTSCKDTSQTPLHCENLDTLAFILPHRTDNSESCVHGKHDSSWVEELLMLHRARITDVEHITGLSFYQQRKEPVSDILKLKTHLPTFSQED
Nature of the assay: Measurement of pNP-TMP hydrolysis by ENPP1 (enzyme activity assay, absorbance at 405 nm). The class given is biochemical. Conditions: purified ENPP1, 500 μM pNP-TMP, Km 232 μM; Ki from IC50 by Cheng-Prusoff. The protocol:
Measurement of pNP-TMP Hydrolysis by ENPP1
p-Nitrophenyl thymidine 5′-monophosphate (pNP-TMP) is a synthesized substrate for ENPP1. The ENPP1 enzyme activity assay with pNP-TMP substrate was conducted as follows:
First, in a 60 μl reaction, 7.5 ng purified ENPP1 was mixed with compounds of Formula (I) (test compound) ranging from 13.7 pM to 10 μM. Incubation of ENPP1 with compounds was set at 25° C. for 10 min. Reactions with DMSO only (with ENPP1 but no compound) gave the fastest reaction (MAX Activity). For each compound dilution, wells with assay buffer (50 mM Tris-HCl, pH8.8, 250 mM NaCl, 0.1 mg/ml BSA, 1% DMSO) only but no ENPP1 were included as controls for subtraction of test compound derived absorbance at 405 nm.
Second, after the 10 minutes ENPP1 and test compound incubation the assay was initiated by transferring 50 μl of the above mentioned ENPP1/test compound reaction into 50 μl of 1 mM pNP-TMP in assay buffer results in a 100 μl total reaction in clear bottom 96 well plates. Absorbance at 405 nm was recorded immediately in kinetic mode by PerkinElmer 2300 Enspire multimode plate reader.
For each inhibitor, the specific ENPP1 activity was calculated using the following equation: ENPP1 activity (pmol/min/μg)=Adjusted Vmax (OD405 nm/min)×conversion factor (pmol/OD405 nm)/amount of enzyme (μg)
Adjusted Vmax=V0×(Km+(S))/(S). In this assay, Km=232 μM, (S)=500 μM. Adjusted Vmax=1.464×V0.
V0=(OD405 nm with ENPP1−OD405 nm ENPP1 blank)/minutes. OD405 nm was plotted, with blank subtracted, against time (minutes), the initial linear rate is V0. […]
The conversion factor (pmol/OD405 nm), was determined by plotting the amount of standard, 4-Nitrophenol (Sigma-Aldrich, Catalog #241326), against absorbance at 405 nm. The slope is the conversion factor. The percent ENPP1 activity for each sample was calculated using the following equation:
% enzyme activity=sample enzyme activity/MAX Activity×100%.
To determine the IC50 for each compound, compound concentration values and percent enzyme activity values were inserted into GraphPad Prism (GraphPad Prism version 7.0 for Windows, GraphPad Software, La Jolla California USA, www.graphpad.com), and Prism's Transform analysis was used to convert the x-axis values (compound concentration) to logarithms. A sigmoidal variable slope nonlinear regression analysis was performed using the following equation: Y=Bottom+(Top−Bottom)/(1+10^((Log IC50−X)*HillSlope)).
Ki values for each compound were calculated from the observed IC50 from GraphPad analysis using the Cheng-Prusoff equation: Ki=IC50/(1+(S)/KM). (S) here is 500 μM and KM is determined to be 232 μM.

A further assay concerns HGS tumor model. Nature of the assay: Anti-tumor activity in HGS tumor model. The class given is in vivo.

In turn, `CCOP(=O)(CC1CCN(c2ncnc3c(C(=O)NC)c[nH]c23)CC1)OCC` (single isomer, unassigned) [Compound 7, diethyl [1-[7-(methylcarbamoyl)-5H-pyrrolo[3,2-d]pyrimidin-4-yl]-piperidin-4-yl]methylphosphonate] gave a pKi at ENPP1 of less than 5.00.

Consider `C=CC(=O)N1CCN(CCCn2c(=O)c(-c3c(Cl)c(OC)cc(OC)c3Cl)cc3cnc(NC)nc32)CC1` [8-(3-(4-acryloylpiperazin-1-yl)propyl)-6-(2,6-dichloro-3,5-dimethoxyphenyl)-2-(methylamino)pyrido[2,3-d]pyrimidin-7(8H)-one], for which, in the assay with HGS tumor model (20/kg of compound), the antitumor activity result is “significant antitumor activity and induced tumor regression”. Besides, the tumor size in the assay on HGS tumor model (animals treated with 20/kg of compound, day 42 after inoculation (vehicle 645)) was 55 mm3. Molecule `Cn1ncc2ncnc(NCc3ccc(P(=O)(O)O)cc3)c21` [Compound 1, 4-[([1-methylpyrazolo[4,3-d]pyrimidin-7-yl]amino)methyl]-phenyl-phosphonic acid] gave a pKi on ENPP1 greater than 7.00. On the same count and under the same terms, then `CCOP(=O)(O)c1ccc(CNc2ncnc3c(C(=O)NC)c[nH]c23)cc1` [Compound 2, ethoxy(4-([[7-(methylcarbamoyl)-5H-pyrrolo[3,2-d]pyrimidin-4-yl]-amino]methyl)phenyl)phosphinic acid], with less than 5.00; and `CNC(=O)c1c[nH]c2c(NCc3ccc(P(=O)(O)O)cc3)ncnc12` [Compound 3, 4-([[7-(methylcarbamoyl)-5H-pyrrolo[3,2-d]pyrimidin-4-yl]amino]-methyl)phenylphosphonic acid], with greater than 6.00; and `CNC(=O)c1c[nH]c2c(NCc3ccc(CP(=O)(O)O)cc3)ncnc12` [Compound 4, [4-([[7-(methylcarbamoyl)-5H-pyrrolo[3,2-d]pyrimidin-4-yl]amino]-methyl)phenyl]methylphosphonic acid], with greater than 6.00.

The molecule `CNC(=O)c1c[nH]c2c(N3CCC(CCP(=O)(O)O)CC3)ncnc12` [Compound 6, 2-[1-[7-(methylcarbamoyl)-5H-pyrrolo[3,2-d]pyrimidin-4-yl]-piperidin-4-yl]ethylphosphonic acid] gave a pKi at ENPP1 greater than 6.00. On to `CNC(=O)c1c[nH]c2c(N3CCC(CP(=O)(O)O)CC3)ncnc12` [Compound 9, [1-[7-(methylcarbamoyl)-5H-pyrrolo[3,2-d]pyrimidin-4-yl]piperidin-4-yl]methylphosphonic acid], for which the negative logarithm of the Ki (pKi) on ENPP1 was greater than 6.00.

Molecule `CCOP(=O)(O)CCCC1CCN(c2ncnc3c(C(=O)NC)c[nH]c23)CC1` [Compound 10, ethoxy(3-[1-[7-(methylcarbamoyl)-5H-pyrrolo[3,2-d]pyrimidin-4-yl]-piperidin-4-yl]propyl)phosphinic acid] showed a pKi on ENPP1 of less than 5.00.

Consider `CNC(=O)c1c[nH]c2c(N3CCC(CCCP(=O)(O)O)CC3)ncnc12` [Compound 11, 3-[1-[7-(methylcarbamoyl)-5H-pyrrolo[3,2-d]pyrimidin-4-yl]-piperidin-4-yl]propylphosphonic acid], for which, at ENPP1, the pKi was greater than 5.00. Regarding `O=P(O)(O)c1ccc(CNc2ncnc3cn[nH]c23)cc1` [Compound 12, 4-([1H-pyrazolo[4,3-d]pyrimidin-7-ylamino]methyl)phenyl-phosphonic acid], the pKi at ENPP1 was greater than 7.00. The same measure, in the same setting: in the case of `NC(=O)c1n[nH]c2c(NCc3ccc(P(=O)(O)O)cc3)ncnc12` [Compound 14, 4-[([3-carbamoyl-1H-pyrazolo[4,3-d]pyrimidin-7-yl]amino)methyl]-phenylphosphonic acid] it was greater than 6.00; in that of `CC(=O)Nc1csc2c(NCc3ccc(P(=O)(O)O)cc3)ncnc12` [Compound 15, 4-[([7-acetamidothieno[3,2-d]pyrimidin-4-yl]amino)methyl]-phenylphosphonic acid], greater than 7.00. `O=P(O)(O)c1ccc(CNc2ncnc3ccsc23)cc1` [Compound 16, 4-([thieno[3,2-d]pyrimidin-4-ylamino]methyl)phenyl-phosphonic acid]: the pKi on ENPP1 is greater than 7.00.

Molecule `CC(C)c1nc(NCc2ccc(P(=O)(O)O)cc2)c2c(cnn2C)n1` [Compound 17, 4-(((5-isopropyl-1-methyl-1H-pyrazolo[4,3-d]pyrimidin-7-yl)amino)methyl)phenyl-phosphonic acid] showed a pKi at ENPP1 greater than 6.00. The same measure, in the same setting: then `CC(C)c1nc(NCc2ccc(P(=O)(O)O)cc2)c2[nH]ncc2n1` [Compound 18, 4-[([5-isopropyl-1H-pyrazolo[4,3-d]pyrimidin-7-yl]amino)methyl]phenylphosphonic acid formic acid salt], with greater than 6.00.

These data come from patent US20240199661A1, “BICYCLIC HETEROARYL PHOSPHONATE DERIVATIVES AS ECTONUCLEOTIDE PYROPHOSPHATASE PHOSPHODIESTERASE 1 INHIBITORS” (RIBOSCIENCE LLC, priority 2021, published 2024).
